Residues, ends and D or L forms follow the SMILES beside them. No end group written: not given here. *: point of attachment. FITC = O=C1OC2(c3ccc(O)cc3Oc3cc(O)ccc32)c2ccc(NC(=S)*)cc21
What was measured:
CCL8 = target: T1, CCL8 (Homo sapiens, UniProt P80075); assay: Fluorescence polarisation (anisotropy) assay; type: binding; details: labelled peptide 50 nM, CCL8 1 μM
T1 construct: SUMO (in-house protein only) (cleaved yes); made in house; host or cells: Escherichia coli RosettaGami 2 (DE3)
T1 sequence (P80075 24-99): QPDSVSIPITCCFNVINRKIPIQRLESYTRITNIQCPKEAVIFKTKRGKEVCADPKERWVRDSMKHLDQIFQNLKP
Source text: FIG. 14. Characterisation of P672_PEP-FITC by fluorescence polarisation. […] Residue C30 was mutated to A to avoid an unpaired cysteine residue. The residues corresponding to the above peptide are wholly contained within the CCL8-binding region of P672_RHIPU transferred in the hybrid evasin P672:EVA1 (SEQ ID 76, see FIG. 5). […] (SEQ ID NO: 90). FIG. 14(A). […] The curve was fitted to the two site-total and non-specific binding model in GraphPad Prism 6. Data are shown as mean and SEM of three independent experiments, with each independent experiment performed as three technical replicates. The affinity constant Kd was calculated in GraphPad Prism from the curve fit with the standard error reported.
FIG. 14(B). […] The measured fluorescence anisotropy (y-axis) of P672_PEP-FITC (50 nM) following binding to a fixed dose (1 μM)) of CCL7, CCL8, CCL18 and CXCL1 (negative control). […] Statistical significance was determined using one-way ANOVA with Sidak's correction for multiple comparisons using Graph Pad Prism 6. **=p<0.005, ****=P<0.00005, ns=not significant.
FIG. 15(C). […] In each case 100 μM (++) or […] (+) of P672_PEP was incubated with P672_PEP-FITC (50 nM)/chemokine (1 μM CCL7 and CCL18; 500 nM CCL8) and the resulting anisotropy measured. […] Experiment carried out in triplicate where each data point is the average of one experiment carried out in technical triplicate. Mean with SEM shown and statistical significance was determined using one-way ANOVA with Sidak's correction for multiple comparisons using Graph Pad Prism 6. *=p<0.05, ***=p<0.0005, ****=P<0.00005, ns=not significant.
Fluorescence polarization assays were performed using a Clariostar (BMG Tech) plate reader with the supplied FITC excitation and emission filters using 96 half area well plates (Corning). The buffer used (FP assay buffer) was 50 mM HEPES, 150 mM NaCl, 0.1% BSA, 0.002% TWEEN-20, 0.2% DMSO, pH 7.4 and the final volume in each well was 30 μL. Polarization was converted to anisotropy using the equation A=(2*P)/(3−P) where P is polarization and A is anisotropy. For each peptide tested the gain was set to 35 mP and adjusted to a well containing fluorescent peptide only. The polarization of the emitted light in the FITC emission channel was then determined. Experiments were performed as two technical and three biological replicates. Screening of P672 peptide fragments was achieved through incubation of each peptide (50 nM) with 1 μM CCL8 (Peprotech) for 30 minutes in FP assay buffer and the resulting anisotropy of the emitted light determined as above. The chemokine cross binding screen was performed by incubating 1 μM chemokine (Peprotech) with 50 nM BK1.1FITC for half an hour in FP assay buffer and the resulting anisotropy of the emitted light determined as above. […] The anisotropy was plotted as a function of CCL8 concentration and fitted to the equation: Y=Bmax*X/(KD+X)+NS*X+Background, where Y is the measured anisotropy, X is the concentration of CCL8 added, Bmax is the maximum binding, KD is the equilibrium dissociation constant, NS is the slope of the nonlinear regression and Background is the anisotropy when no CCL8 is present, in Graph Pad Prism. Displacement assays were carried out with CCL7, CCL8, and CCL18 (Peprotech, 1 μM). […] For all FP assays, the experiments were carried out as two technical and three biological replicates.

CCL18 = target: T2, CCL18 (Homo sapiens, UniProt P55774); assay: Fluorescence polarisation (anisotropy) assay; type: binding; details: labelled peptide 50 nM, chemokine 1 μM
T2 construct: purchased Peprotech
T2 sequence (P55774 21-89): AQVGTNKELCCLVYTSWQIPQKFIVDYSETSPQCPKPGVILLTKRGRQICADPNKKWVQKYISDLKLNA
Method: (§1) FIG. 14(B). Fluorescence polarisation assay showing binding of chemokines to P672_PEP-FITC. The measured fluorescence anisotropy (y-axis) of P672_PEP-FITC (50 nM) following binding to a fixed dose (1 μM)) of CCL7, CCL8, CCL18 and CXCL1 (negative control). […] Statistical significance was determined using one-way ANOVA with Sidak's correction for multiple comparisons using Graph Pad Prism 6. **=p<0.005, ****=P<0.00005, ns=not significant.
(§2) FIG. 15(C). Displacement of P672_PEP-FITC from CCL18 by P672_PEP. In each case 100 μM (++) or […] (+) of P672_PEP was incubated with P672_PEP-FITC (50 nM)/chemokine (1 μM CCL7 and CCL18; 500 nM CCL8) and the resulting anisotropy measured. A peptide with the P672_PEP sequence scrambled ([…]) served as a negative control (P672_PEP_SCRAM; […]). Experiment carried out in triplicate where each data point is the average of one experiment carried out in technical triplicate. Mean with SEM shown and statistical significance was determined using one-way ANOVA with Sidak's correction for multiple comparisons using Graph Pad Prism 6. *=p<0.05, ***=p<0.0005, ****=P<0.00005, ns=not significant.
(§3) Fluorescence polarization assays were performed using a Clariostar (BMG Tech) plate reader with the supplied FITC excitation and emission filters using 96 half area well plates (Corning). The buffer used (FP assay buffer) was 50 mM HEPES, 150 mM NaCl, 0.1% BSA, 0.002% TWEEN-20, 0.2% DMSO, pH 7.4 and the final volume in each well was 30 μL. Polarization was converted to anisotropy using the equation A=(2*P)/(3−P) where P is polarization and A is anisotropy. For each peptide tested the gain was set to 35 mP and adjusted to a well containing fluorescent peptide only. The polarization of the emitted light in the FITC emission channel was then determined. Experiments were performed as two technical and three biological replicates. Screening of P672 peptide fragments was achieved through incubation of each peptide (50 nM) with 1 μM CCL8 (Peprotech) for 30 minutes in FP assay buffer and the resulting anisotropy of the emitted light determined as above. The chemokine cross binding screen was performed by incubating 1 μM chemokine (Peprotech) with 50 nM BK1.1FITC for half an hour in FP assay buffer and the resulting anisotropy of the emitted light determined as above. To monitor BK1.1FITC Ala mutants of binding to CCL8, 50 nM labelled peptide was incubated with varying concentrations of recombinant CCL8 (0-25 μM, final) in 30 μL FP assay buffer for 30 minutes and the resulting anisotropy of the emitted light determined as above. The anisotropy was plotted as a function of CCL8 concentration and fitted to the equation: Y=Bmax*X/(KD+X)+NS*X+Background, where Y is the measured anisotropy, X is the concentration of CCL8 added, Bmax is the maximum binding, KD is the equilibrium dissociation constant, NS is the slope of the nonlinear regression and Background is the anisotropy when no CCL8 is present, in Graph Pad Prism. Displacement assays were carried out with CCL7, CCL8, and CCL18 (Peprotech, 1 μM). […] For all FP assays, the experiments were carried out as two technical and three biological replicates.

CCL7 = target: T3, CCL7 (Homo sapiens, UniProt P80098); assay: Fluorescence polarisation (anisotropy) assay; type: binding; details: labelled peptide 50 nM, chemokine 1 μM
T3 construct: purchased Peprotech
Method: as §1, §2, §3

CXCL1 = target: T4, CXCL1 (Homo sapiens, UniProt P09341); assay: Fluorescence polarisation (anisotropy) assay; type: binding; details: labelled peptide 50 nM, chemokine 1 μM; negative control chemokine
T4 sequence (P09341 35-107): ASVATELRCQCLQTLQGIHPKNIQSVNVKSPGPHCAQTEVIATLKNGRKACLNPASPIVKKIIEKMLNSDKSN
Method: as §1
Fluorescence polarization assays were performed using a Clariostar (BMG Tech) plate reader with the supplied FITC excitation and emission filters using 96 half area well plates (Corning). The buffer used (FP assay buffer) was 50 mM HEPES, 150 mM NaCl, 0.1% BSA, 0.002% TWEEN-20, 0.2% DMSO, pH 7.4 and the final volume in each well was 30 μL. […] The polarization of the emitted light in the FITC emission channel was then determined. […] Screening of P672 peptide fragments was achieved through incubation of each peptide (50 nM) with 1 μM CCL8 (Peprotech) for 30 minutes in FP assay buffer and the resulting anisotropy of the emitted light determined as above. The chemokine cross binding screen was performed by incubating 1 μM chemokine (Peprotech) with 50 nM BK1.1FITC for half an hour in FP assay buffer and the resulting anisotropy of the emitted light determined as above. […]

[1] = tested on: human CCL5 together with CXCL8, CXCL1, CCL3 or CCL2; assay: Biolayer interferometry polyvalent binding (association with CCL5, then CCL5 plus second chemokine); details: BLI, wavelength shift in association 2
Source text: FIG. 10. Polyvalent binding of CC and CXC chemokines to two-warhead evasins. […] This was followed by association with CCL5+CXCL8 (light grey trace), or with CCL5+CXCL1 (dark grey trace) or CCL5+CCL3 (black trace) (association 2), and then dissociated in buffer (dissociation).
FIG. 11. Polyvalent binding of CC and CXC chemokines to two-warhead evasins. […] This was followed by association with CCL5+CXCL8 (light grey trace), or with CCL5+CXCL1 (dark grey trace) or CCL5+CCL2 (black trace) (association 2), and then dissociated in buffer (dissociation).
The ability of 2-warhead evasins to engage in polyvalent binding of CC and CXC chemokines was further determined.

[2] = target: T5, His-tagged P672-biotinylated CCL2 interaction (Homo sapiens, UniProt P13500); assay: AlphaScreen disruption of P672:chemokine interaction; type: binding; details: AlphaScreen, peptide 100 μM
T5 construct: host or cells: P672: HEK293F (in-house); biotinylated CCL2: not described
Method: (§4) B-D. Effect of indicated peptides at a concentration of 100 μM on a His-tagged P672-biotinylated CCL8, CCL2 or CCL3 interaction respectively using an AlphaScreen assay. In each panel. […] Data are presented as mean±s.e.m. of three independent experiments, shown as individual data points.
(§5) Data are shown as mean of two technical replicates. Curves were fitted with 4 parameters to estimate IC50.
(§6) The binding of these peptides to CCL8 was assayed by examining their ability to disrupt the P672:CCL8 interaction using an AlphaScreen assay (FIG. 20E, H). […] BK1 derivatives were tested for their ability to inhibit P672 interactions with CCL2 and CCL3 using AlphaScreen (FIG. 20 F, G, I, J).
(§7) AlphaScreen® Histidine detection kit was purchased from PerkinElmer (6760619M lot: 2457886) and the assay was set up in white bottom Proxiplate™ 384 Plus microplates (PerkinElmer) following the manufacturer's instructions. The assay buffer used was 50 mM HEPES, 150 mM NaCl, 0.1% BSA, 0.01% Tween20, 1% DMSO, pH 7.5 and the final volume in each well was 20 μL. Briefly, biotinylated chemokine (recombinant, final concentration 1.25 nM (CCL8), 5 nM (CCL2) and 2.5 nM (CCL3)) was pre-incubated at room temperature for 15 min with different concentrations of each peptide. His-tagged P672 (final concentration 2.5 nM (CCL8), 5 nM (CCL2) and 1.25 nM (CCL3)) was then added to each well and the plate was incubated at room temperature for 30 min. Finally, acceptor and donor beads were added as a 1:1 suspension in buffer to each well and the plate was further incubated at RT for 1 h. Data was obtained by reading the plate using a Pherastar FSX plate reader (excitation 680 nm, emission 570 nm) and was analysed using GraphPad Prism.

[3] = target: T6, His-tagged P672-biotinylated CCL3 interaction (Homo sapiens, UniProt P10147); assay: as above; type: binding; details: AlphaScreen, peptide 100 μM
T6 construct: host or cells: P672: HEK293F (in-house); biotinylated CCL3: not described
T6 sequence (P10147 24-92): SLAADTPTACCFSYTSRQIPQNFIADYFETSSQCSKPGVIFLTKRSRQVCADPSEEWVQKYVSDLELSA
Method: as §4, §5, §6, §7

[4] = target: T7, His-tagged P672-biotinylated CCL8 interaction (Homo sapiens, UniProt P80075); assay: as above; type: binding; details: peptide 100 μM
T7 construct: SUMO (cleaved yes); biotin (enzymatic, BirA co-expression); made in house; host or cells: CCL8: Escherichia coli RosettaGami 2 (DE3); P672: HEK293F
T7 sequence (P80075 24-99): T1 sequence (P80075 24-99)
Method: as §4, §5, §6, §7

T3 sequence (P80098 24-99): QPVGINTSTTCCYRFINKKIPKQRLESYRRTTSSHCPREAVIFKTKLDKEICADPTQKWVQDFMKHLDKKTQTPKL
T5 sequence (P13500 24-99): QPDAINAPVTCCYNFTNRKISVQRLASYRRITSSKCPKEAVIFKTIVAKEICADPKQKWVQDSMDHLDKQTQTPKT
Sequence of human CCL5 together with CXCL8, CXCL1, CCL3 or CCL2 (P13501 24-91): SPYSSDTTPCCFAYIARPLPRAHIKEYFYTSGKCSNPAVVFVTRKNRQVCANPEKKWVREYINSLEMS

Compound: CC(C)[C@H](NC(=O)[C@@H]1CCCN1C(=O)[C@H](CCCCN)NC(=O)[C@H](Cc1ccccc1)NC(=O)[C@H](Cc1ccccc1)NC(=O)[C@H](CC(=O)O)NC(=O)[C@H](CCC(=O)O)NC(=O)[C@H](Cc1ccc(O)cc1)NC(=O)[C@H](CC(=O)O)NC(=O)[C@H](CCC(=O)O)NC(=O)[C@H](CC(=O)O)NC(=O)[C@H](CCC(=O)O)NC(=S)Nc1ccc2c(c1)C(=O)OC21c2ccc(O)cc2Oc2cc(O)ccc21)C(=O)N[C@H](C(=O)N[C@@H](C)C(=O)N[C@@H](Cc1ccc(O)cc1)C(=O)N[C@@H](Cc1ccccc1)C(N)=O)[C@@H](C)O [BK1.1FITC] ({FITC}-EDEDYEDFFKPVTAYF-NH2)
- Binding to CCL8 (change in anisotropy) (CCL8): significant increase in anisotropy
- Binding to CCL8 (change in anisotropy) (CCL8; listed as BK1.1FTC): increase in anisotropy
- Binding to CCL8 (change in anisotropy) (CCL8; listed as P672_PEP-FITC): able to bind
- Binding to CCL18 (change in anisotropy) (CCL18): significant increase in anisotropy
- Binding to CCL18 (change in anisotropy) (CCL18; listed as P672_PEP-FITC): able to bind
- Binding to CCL7 (change in anisotropy) (CCL7): significant increase in anisotropy
- Binding to CCL7 (change in anisotropy) (CCL7; listed as P672_PEP-FITC): able to bind
- Binding to CXCL1 (change in anisotropy) (CXCL1): not

Compound: P1243:P1156: two-warhead evasin: P1243_AMBAM linked via GGGGS linker to P1156_IXORI
- Polyvalent (simultaneous) binding of CC and CXC chemokines [1]: can associate simultaneously with CCL5 and either CXCL8 or CXCL1

Compound: Y21F32: shorter peptide Y21-F32 of P672 without the C30A mutation (YEDFFKPVTCYF-NH2)
- Disruption of the P672-CCL2 interaction [2]: disrupted
- Disruption of the P672-CCL3 interaction [3]: disrupted
- Disruption of the P672-CCL8 interaction [4]: significantly disrupt
